In patent US8476229B2, “Blood sugar-modulating polypeptides” (China Medical University, priority 2008, dated 2013):

System: normal mice (BALB/c)
Assay: Glucose challenge after oral administration of polypeptide, normal mice; blood sugar value by blood sugar meter
Format: in vivo
Settings: 50 mg/kg-body weight oral; for Inhibition Rate (%) toward the blood sugar values: BALB/c fasted 18 hrs, 4 g/kg glucose i.p. after 15 minutes, blood sugar after 180 minutes, relative to water control; for effect of reducing the blood sugar values (in words): BALB/c, comment on Tables 4 and 5
Description: The following materials were adopted in the examples: • (A) Experimental subjects: two strains of mice, BALB/c (the metabolism of blood sugar is normal) and ob/ob (spontaneous diabetes type 2), were used to conduct experiments, and they were provided by the National Laboratory Animal Center, Taiwan. • (B) Polypeptides: polypeptides with amino acid sequences shown in Table 1 were produced by the solid phase synthesis method.
Five normal mice (BALB/c) in each of the nine groups fasted for 18 hrs, and then, respectively, a solution (20 μL) of 50 mg/kg-body weight of the polypeptide of SEQ ID NO: 1, a solution (20 μL) of 50 mg/kg-body weight of the polypeptide of SEQ ID NO: 2, a solution (20 μL) of 50 mg/kg-body weight of the polypeptide of SEQ ID NO: 3, a solution (20 μL) of 50 mg/kg-body weight of the polypeptide of SEQ ID NO: 4, a solution (20 μL) of 50 mg/kg-body weight of the polypeptide of SEQ ID NO: 5, a solution (20 μL) of 50 mg/kg-body weight of the polypeptide of SEQ ID NO: 6, a solution (20 μL) of 50 mg/kg-body weight of the polypeptide of SEQ ID NO: 7, a solution (20 μL) of 50 mg/kg-body weight of the polypeptide of SEQ ID NO: 8, or a solution (20 μL) of 50 mg/kg-body weight of the polypeptide of SEQ ID NO:9, was given to each mouse of each group of the experimental group by oral administration, while in the control group (five mice), each mouse was given water (20 μL). After 15 minutes, a solution of 4 g/kg-body weight of glucose was injected into the peritoneal cavity of each mouse to rapidly raise the blood sugar value of each mouse. After 180 minutes, the blood of each mouse was extracted from its tails, and the blood sugar value was determined by a blood sugar meter (Accu-Check Advantage, Roche, Germany). The blood sugar values of the mice of the experimental group were compared with those of the control group and were analyzed to obtain the relative inhibition rate of each of the polypeptides toward the blood sugar values, as shown in Table 4.
Five normal mice (BALB/c) in each of two groups fasted for 18 hrs, and then, respectively, a solution (20 μL) of 50 mg/kg-body weight of the polypeptide of SEQ ID NO: 10, or a solution (20 μL) of 50 mg/kg-body weight of the polypeptide of SEQ ID NO:11, was given to each mouse of each group of the experimental group by oral administration, while in the control group (five mice), each mouse was given water (20 μL). After 15 minutes, a solution of 4 g/kg-body weight of glucose was injected into the peritoneal cavity of each mouse to rapidly raise the blood sugar value of each mouse. After 180 minutes, the blood of each mouse was extracted from its tails, and the blood sugar value was determined by a blood sugar meter (Accu-Check Advantage, Roche, Germany). The blood sugar values of the mice of the experimental group were compared with those of the control group and were analyzed to obtain a relative inhibition rate of the polypeptides of SEQ ID NO:10 and SEQ ID NO:11 toward the blood sugar values, as shown in Table 5.

RVRVWVTERGIVARPPTIG (MOMORDICA …) [SEQ ID NO: 11]
Inhibition Rate (%) toward the blood sugar values (50 mg/kg): 51.9 ± 19.4 %
Inhibition Rate (%) toward the blood sugar values (listed as SEQ ID NO:11, 50 mg/kg): about 50%
effect of reducing the blood sugar values (in words): can reduce the blood sugar values of the normal mice efficiently

RVWVWVNSKGIVIRTPIIT (ZINNIA ELEGANS) [SEQ ID NO: 2]
Inhibition Rate (%) toward the blood sugar values: 24.5 ± 2.3%

RVRVWVTERGIVAR (MOMORDICA …) [SEQ ID NO: 10]
Inhibition Rate (%) toward the blood sugar values: 34.5 ± 8.8 %
effect of reducing the blood sugar values (in words): can reduce the blood sugar values of the normal mice efficiently

RVRVWVDSYGIVSMVPKIG (VITIS VINIFERA) [SEQ ID NO: 4]
Inhibition Rate (%) toward the blood sugar values: 67.8 ± 9.1%
effect of reducing the blood sugar values (in words): better effect of reducing the blood sugar values

RVWVWINKDEIVYQVPTIG (MEDICAGO TRUNCATULA) [SEQ ID NO: 3]
Inhibition Rate (%) toward the blood sugar values: 52.5 ± 14.9%

RVRVWVNKKGKVIRVPRIG (CITRUS PARADISI) [SEQ ID NO: 6]
Inhibition Rate (%) toward the blood sugar values: 26.2 ± 3.1%

DENRVRIWVDTVAKTPTIG (ORYZA SATIVA) [SEQ ID NO: 9]
Inhibition Rate (%) toward the blood sugar values: 60.2 ± 14.1%
effect of reducing the blood sugar values (in words): better effect of reducing the blood sugar values

RVRVWVDENGIVISVPTIG (VITIS VINIFERA) [SEQ ID NO: 5]
Inhibition Rate (%) toward the blood sugar values: 30.2 ± 31.3%

RVRVWVDEIRIVVRNPTAG (ARABIDOPSIS THALIANA) [SEQ ID NO: 8]
Inhibition Rate (%) toward the blood sugar values: 25.5 ± 8.6%

RVRIWVNKRGLVVSPPRIG (CUCURBITA MAXIMA) [SEQ ID NO: 1]
Inhibition Rate (%) toward the blood sugar values: 15.7 ± 6.9%

RVRVWVDENGIVTRVPVIG (SAMBUCUS NIGRA) [SEQ ID NO: 7]
Inhibition Rate (%) toward the blood sugar values: 56.3 ± 2.6%
effect of reducing the blood sugar values (in words): better effect of reducing the blood sugar values
